Data from patent US8486962B2, “Antifungal agents” (F2G Ltd., priority 2005, dated 2013).
Values after ≈ are worked out from the molar mass of the structure shown.

Columns and labels:
Format in all cases: cell-based
[1] = tested on: Aspergillus niger; assay: MIC, YAG medium, Aspergillus niger; details: YAG medium; for MIC: Aspergillus niger, read-out: MIC A Niger 1
Description: (§1) Measurement of Minimum Inhibitory Concentrations (MICs)
(§2) Between 1 and 5 mgs of compound were accurately weighed out into a sterile Eppendorf tube. The compound was dissolved in DMSO to give a solution containing 5 mg/ml. Tubes were stored at −20° C. until required.
(§3) On the day of testing thawed solutions were vortex mixed to ensure homogeneity. 30 μl of solution was removed and added to 570 μl of sterile water in a separate sterile Eppendorf. The thoroughly mixed solution was used to prepare a series of doubling dilutions in water, in a deep well plate. Eleven replicate plates were prepared using a Minitrak by aspirating 20 μl from each well into eleven clear polystyrene 96 well plates.
(§4) Spores of Aspergillus spp (Aspergillus fumigatus, Aspergillus terreus, Aspergillus niger and Aspergillus flavus) were harvested from cultures grown on Sabarauds agar for 5 days, and resuspended in PBS/Tween 80 to approx 1×10^7 cfu/ml Other filamentous fungi (Fusarium solani, Scedosporium spp., Trichophyton spp., Absidia corymbifera), were grown on Sabarauds agar for 2-10 days and spores/hyphae resuspended in PBS/Tween to give approx 1×10^7 cfU/ml. Candida species (Candida albicans, Candida glabrata, Candida krusei, Candida parapsilosis and Candida tropicalis) were grown on Sabarauds agar, cells were harvested from the agar using a sterile loop and resuspended in PBS/Tween 80 to approx 1×10^6 cfu/ml. Each organism suspension was diluted in RPMI medium, containing 2% glucose and 0.135M MOPS buffer (pH7.0) to 2×10^4 cfu/ml for Aspergillus spp and other filamentous fungi and 2×10^3 cfu/ml for yeast. 80 μl of an organism suspension was added to each well of the plate containing drug dilutions.
(§5) This produced MIC plates with a drug range 50-0.05 mg/L and organism inocula of 1-2×10^4 cfu/ml for Aspergillus spp and other filamentous fungi and 1-2×10^3 cfu/ml for yeasts. All plates were incubated for 24-48 hrs at 35° C. Growth was assessed by monitoring the optical density at 485 nm for each well. The MIC of a compound is the lowest drug concentration that inhibits growth of an organism by >80% compared with a drug free control. MICs are recorded as mg/L. Other growth media can be used for susceptibility testing, and the activity of the described compounds can also be assessed in a medium comprising, 1% glucose, 1% ammonium chloride and 0.5% yeast extract (YAG medium). To perform MIC tests in this medium, dilutions of compounds are prepared in microtitre plates as described above. Fungal strains to be tested are grown and harvested in an identical manner to that described above, each organism suspension is then diluted in YAG medium to 2×10^4 cfu/ml for Aspergillus spp and other filamentous fungi and 2×10^3 cfu/ml for yeast. 80 μl of an organism suspension was added to each well of the plate containing drug dilutions. This produced MIC plates with a drug range 50-0.05 mg/L and organism inocula of 1-2×10^4 cfu/ml for Aspergillus spp and other filamentous fungi and 1-2×10^3 cfu/ml for yeasts. All plates were incubated for 24 hrs at 35° C. Growth was assessed by monitoring the optical density at 485 nm for each well. The MIC of a compound is the lowest drug concentration that inhibits growth of an organism by >70% compared with a drug free control. MICs are recorded as mg/L. In cases where the MIC of an organism is […]0.05 mg/L the MIC is repeated using a concentration range of 0.5-0.0005 mg/L. MIC tests in YAG medium have more clear-cut endpoints and have slightly lower MICS than those performed in RPMI medium.
(§6) The following organisms were tested: Aspergillus fumigatus AF293 and Aspergillus fumigatus AF210, Aspergillus niger, Aspergillus terreus, Aspergillus favus, Candida albicans, Candida krusei, Candida tropicalis, Candida glabrata, Candida parapsilosis, Trichophyton rubrum, Trichophyton mentagrophytes, Scedosporium prolificans, Scedosporium apiospermum, Absidia corymbifera, Fusarium solani.

[2] = tested on: Aspergillus flavus; assay: MIC, YAG medium, Aspergillus flavus; details: YAG medium; for MIC: Aspergillus flavus, read-out: MIC A Flavus 01
Description: as §1, §2, §3, §4, §5, §6

[3] = tested on: Aspergillus fumigatus AF210; assay: MIC, YAG medium, Aspergillus fumigatus AF210; details: YAG medium; for MIC: Aspergillus fumigatus, AF210, read-out: MIC A Fum. 210
Description: as §1, §2, §3, §4, §5, §6

[4] = tested on: Aspergillus fumigatus AF293; assay: MIC, YAG medium, Aspergillus fumigatus AF293; details: YAG medium; for MIC: Aspergillus fumigatus, AF293, read-out: MIC A Fum. 293
Description: as §1, §2, §3, §4, §5, §6

[5] = tested on: Aspergillus terreus; assay: MIC, YAG medium, Aspergillus terreus; details: YAG medium; for MIC: Aspergillus terreus, read-out: MIC A Terreus 4
Description: as §1, §2, §3, §4, §5, §6

Row | Compound | MIC A Niger 1 [1] [µg/mL] | MIC A Flavus 01 [2] [µg/mL] | MIC A Fum. 210 [3] [µg/mL] | MIC A Fum. 293 [4] [µg/mL] | MIC A Terreus 4 [5] [µg/mL] | MIC [1] [µg/mL] | MIC [2] [µg/mL] | MIC [3] [µg/mL] | MIC [4] [µg/mL] | MIC [5] [µg/mL]
1 | N-(3-Methyl-3H-benzoimidazol-5-yl)-2-oxo-2-(2-phenyl-indolizin-3-yl)-acetamide and N-(1-Methyl-1H-benzoimidazol-5-yl)-2-oxo-2-(2-phenyl-indolizin-3-yl)-acetamide [Example 241] | 12.5 | 0.8 | 12.5 | 12.5 | 12.5 |  |  |  |  | 
2 | CNC(=O)C(=O)c1c(-c2ccccc2)cc2ccccn12 [Example 179, N-Methyl-2-oxo-2-(2-phenyl-indolizin-3-yl)-acetamide] |  |  |  |  |  | > 50 | 25 (≈ 89.8 µM) | 12.5 (≈ 44.9 µM) | 12.5 (≈ 44.9 µM) | 6.25 (≈ 22.5 µM)
3 | O=C(Nc1ccccc1Cl)C(=O)c1c(-c2cccnc2)cc2ccccn12 [Example 216, N-(2-Chloro-phenyl)-2-oxo-2-(2-pyridin-3-yl-indolizin-3-yl)-acetamide] |  |  |  |  |  | 0.4 (≈ 1.06 µM) | 0.2 (≈ 0.532 µM) | 6.25 (≈ 16.6 µM) | 6.25 (≈ 16.6 µM) | 0.2 (≈ 0.532 µM)
4 | COc1cc(NC(=O)C(=O)c2c(-c3ccccc3)cc3ccccn23)cc(OC)c1OC [Example 222, 2-Oxo-2-(2-phenyl-indolizin-3-yl)-N-(3,4,5-trimethoxy-phenyl)-acetamide] |  |  |  |  |  | 3.1 (≈ 7.2 µM) | 0.05 (≈ 0.116 µM) | 1.6 (≈ 3.72 µM) | 1.6 (≈ 3.72 µM) | 0.4 (≈ 0.929 µM)
5 | Cc1ccc(NC(=O)C(=O)c2c(-c3cccnc3)cc3ccc(C)cn23)cc1 [Example 199, 2-(6-Methyl-2-pyridin-3-yl-indolizin-3-yl)-2-oxo-N-p-tolyl-acetamide] |  |  |  |  |  | > 50 | > 50 | > 50 | > 50 | 1.6 (≈ 4.33 µM)
6 | O=C(NC1CCCCC1)C(=O)c1c(-c2ccccc2)cc2ccccn12 [Example 178, N-Cyclohexyl-2-oxo-2-(2-phenyl-indolizin-3-yl)-acetamide] |  |  |  |  |  | 0.2 (≈ 0.577 µM) | 1.6 (≈ 4.62 µM) | 0.8 (≈ 2.31 µM) | 0.8 (≈ 2.31 µM) | 0.1 (≈ 0.289 µM)
7 | COc1ccc(NC(=O)C(=O)c2c(-c3cccnc3)cc3ccccn23)cc1 [Example 147, N-(4-Methoxy-phenyl)-2-oxo-2-(2-pyridin-3-yl-indolizin-3-yl)-acetamide] |  |  |  |  |  | 0.1 (≈ 0.269 µM) | 0.1 (≈ 0.269 µM) | 6.25 (≈ 16.8 µM) | 12.5 (≈ 33.7 µM) | 3.1 (≈ 8.35 µM)
8 | COc1ccc(NC(=O)C(=O)c2c(-c3ccccc3)cc3cccc(C)n23)cc1 [Example 237, N-(4-Methoxy-phenyl)-2-(5-methyl-2-phenyl-indolizin-3-yl)-2-oxo-acetamide] |  |  |  |  |  | 0.8 (≈ 2.08 µM) | 1.6 (≈ 4.16 µM) | 3.1 (≈ 8.06 µM) | 1.6 (≈ 4.16 µM) | 0.4 (≈ 1.04 µM)
9 | CN(C)C(=O)c1ccc(NC(=O)C(=O)c2c(-c3ccccc3)cc3ccccn23)cc1 [Example 160, N,N-Dimethyl-4-[2-oxo-2-(2-phenyl-indolizin-3-yl)-acetylamino]-benzamide] |  |  |  |  |  | 0.4 (≈ 0.972 µM) | 3.1 (≈ 7.53 µM) | 50 (≈ 122 µM) | 50 (≈ 122 µM) | 50 (≈ 122 µM)
10 | CN(C(=O)C(=O)c1c(-c2ccccc2)cc2ccccn12)c1ccccc1 [Example 186, N-Methyl-2-oxo-N-phenyl-2-(2-phenyl-indolizin-3-yl)-acetamide] |  |  |  |  |  | 3.1 (≈ 8.75 µM) | 25 (≈ 70.5 µM) | 3.1 (≈ 8.75 µM) | 12.5 (≈ 35.3 µM) | 12.5 (≈ 35.3 µM)
11 | Cc1ccc(NC(=O)C(=O)c2c(-c3ccccc3)cc3cc(C)ccn23)cc1 [Example 191, 2-(7-Methyl-2-phenyl-indolizin-3-yl)-2-oxo-N-p-tolyl-acetamide] |  |  |  |  |  | 1.6 (≈ 4.34 µM) | 0.8 (≈ 2.17 µM) | 3.1 (≈ 8.41 µM) | 3.1 (≈ 8.41 µM) | 0.2 (≈ 0.543 µM)
12 | CC(=O)c1ccc(NC(=O)C(=O)c2c(-c3cccnc3)cc3ccccn23)cc1 [Example 217, N-(4-Acetyl-phenyl)-2-oxo-2-(2-pyridin-3-yl-indolizin-3-yl)-acetamide] |  |  |  |  |  | > 50 | 0.8 (≈ 2.09 µM) | > 50 | > 50 | 3.1 (≈ 8.09 µM)
13 | O=C(Nc1ccc(F)cc1)C(=O)c1c(-c2cccnc2)cc2ccccn12 [Example 198, N-(4-Fluoro-phenyl)-2-oxo-2-(2-pyridin-3-yl-indolizin-3-yl)-acetamide] |  |  |  |  |  | 1.6 (≈ 4.45 µM) | 0.8 (≈ 2.23 µM) | > 50 | 3.1 (≈ 8.63 µM) | 0.8 (≈ 2.23 µM)
14 | O=C(Nc1ccc(Br)cc1)C(=O)c1c(-c2cccnc2)cc2ccccn12 [Example 214, N-(4-Bromo-phenyl)-2-oxo-2-(2-pyridin-3-yl-indolizin-3-yl)-acetamide] |  |  |  |  |  | 0.4 (≈ 0.952 µM) | 0.1 (≈ 0.238 µM) | 0.8 (≈ 1.9 µM) | 0.8 (≈ 1.9 µM) | 0.1 (≈ 0.238 µM)
15 | CCOC(=O)c1ccccc1NC(=O)C(=O)c1c(-c2ccccc2)cc2ccccn12 [Example 208, 2-[2-Oxo-2-(2-phenyl-indolizin-3-yl)-acetylamino]-benzoic acid ethyl ester] |  |  |  |  |  | > 50 | > 50 | > 50 | > 50 | 12.5 (≈ 30.3 µM)
16 | O=C(Nc1ccncc1)C(=O)c1c(-c2ccccc2)cc2ccccn12 [Example 158, 2-Oxo-2-(2-phenyl-indolizin-3-yl)-N-pyridin-4-yl-acetamide] |  |  |  |  |  | 0.4 (≈ 1.17 µM) | > 50 | > 50 | > 50 | > 50
17 | O=C(Nc1ccc(Cl)cc1)C(=O)c1c(-c2ccc(F)cc2)cc2ccccn12 [Example 210, N-(4-Chloro-phenyl)-2-[2-(4-fluoro-phenyl)-indolizin-3-yl]-2-oxo-acetamide] |  |  |  |  |  | 0.05 (≈ 0.127 µM) | 0.05 (≈ 0.127 µM) | > 50 | > 50 | 0.05 (≈ 0.127 µM)
18 | COC(=O)c1ccccc1NC(=O)C(=O)c1c(-c2ccccc2)cc2ccccn12 [Example 142, 2-[2-Oxo-2-(2-phenyl-indolizin-3-yl)-acetylamino]-benzoic acid methyl ester] |  |  |  |  |  | 0.8 (≈ 2.01 µM) | > 50 | > 50 | > 50 | > 50
19 | COc1ccc(NC(=O)C(=O)c2c(-c3cccc(C#N)c3)cc3ccccn23)cc1 [Example 236, 2-[2-(3-Cyano-phenyl)-indolizin-3-yl]-N-(4-methoxy-phenyl)-2-oxo-acetamide] |  |  |  |  |  | > 50 | 0.1 (≈ 0.253 µM) | > 50 | > 50 | 0.05 (≈ 0.126 µM)
20 | O=C(Nc1ccccc1Cl)C(=O)c1c(-c2ccccc2)cc2ccccn12 [Example 207, N-(2-Chloro-phenyl)-2-oxo-2-(2-phenyl-indolizin-3-yl)-acetamide] |  |  |  |  |  | 0.05 (≈ 0.133 µM) | 0.1 (≈ 0.267 µM) | 0.8 (≈ 2.13 µM) | 0.8 (≈ 2.13 µM) | 0.05 (≈ 0.133 µM)
21 | Cc1ccc(NC(=O)C(=O)c2c(-c3ccccc3)cc3cccc(C)n23)cc1 [Example 188, 2-(5-Methyl-2-phenyl-indolizin-3-yl)-2-oxo-N-p-tolyl-acetamide] |  |  |  |  |  | 0.4 (≈ 1.09 µM) | 3.1 (≈ 8.41 µM) | 0.8 (≈ 2.17 µM) | 1.6 (≈ 4.34 µM) | 0.8 (≈ 2.17 µM)
22 | COc1ccc(NC(=O)C(=O)c2c(-c3ccncc3)cc3ccccn23)cc1 [Example 162, N-(4-Methoxy-phenyl)-2-oxo-2-(2-pyridin-4-yl-indolizin-3-yl)-acetamide] |  |  |  |  |  | 3.1 (≈ 8.35 µM) | > 50 | > 50 | > 50 | > 50
